# Measurements published in patent US10975056B2 (GlaxoSmithKline Intellectual Property Development Limited, priority 2016, dated 2021).
# Where “and” joins values, the source holds several entries; their conditions need not be identical. Equal values may be shown once. Where a name gives a salt, the structure may show the parent alone. Read-outs that look alike come from different tables or passages of the source.
# Columns and labels:
# [1] = system: erythroid progenitor cells (EPCs); experiment: Fetal hemoglobin (HbF) ELISA in day 7 erythroid progenitor cells; assay type: cell-based, human; details: Homo sapiens, Erythroid progenitor cell, HbF ELISA, day 7 EPCs, 5 days; read-out: EPC ELISA (pEC50 category) (converted);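 also: for fetal hemoglobin induction normalized to vehicle-treated cells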
# Outline: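 CD34+-derived EPCs, 1,000 cells/well, rhEPO 3 U/mL; Compound A 22-pt series, […]; 5 d, 37° C, 5% CO2. Freeze-thaw lysis, anti-HbF capture + HRP anti-HbF, TMB, OD450. Normalized to DMSO wells.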
# DNMT1 = DNMT1 (Homo sapiens, UniProt P26358); experiment: DNMT1 biochemical activity, breaklight assay and/or SPA assay
# DNMT1, sequence (P26358 whole entry, looked up): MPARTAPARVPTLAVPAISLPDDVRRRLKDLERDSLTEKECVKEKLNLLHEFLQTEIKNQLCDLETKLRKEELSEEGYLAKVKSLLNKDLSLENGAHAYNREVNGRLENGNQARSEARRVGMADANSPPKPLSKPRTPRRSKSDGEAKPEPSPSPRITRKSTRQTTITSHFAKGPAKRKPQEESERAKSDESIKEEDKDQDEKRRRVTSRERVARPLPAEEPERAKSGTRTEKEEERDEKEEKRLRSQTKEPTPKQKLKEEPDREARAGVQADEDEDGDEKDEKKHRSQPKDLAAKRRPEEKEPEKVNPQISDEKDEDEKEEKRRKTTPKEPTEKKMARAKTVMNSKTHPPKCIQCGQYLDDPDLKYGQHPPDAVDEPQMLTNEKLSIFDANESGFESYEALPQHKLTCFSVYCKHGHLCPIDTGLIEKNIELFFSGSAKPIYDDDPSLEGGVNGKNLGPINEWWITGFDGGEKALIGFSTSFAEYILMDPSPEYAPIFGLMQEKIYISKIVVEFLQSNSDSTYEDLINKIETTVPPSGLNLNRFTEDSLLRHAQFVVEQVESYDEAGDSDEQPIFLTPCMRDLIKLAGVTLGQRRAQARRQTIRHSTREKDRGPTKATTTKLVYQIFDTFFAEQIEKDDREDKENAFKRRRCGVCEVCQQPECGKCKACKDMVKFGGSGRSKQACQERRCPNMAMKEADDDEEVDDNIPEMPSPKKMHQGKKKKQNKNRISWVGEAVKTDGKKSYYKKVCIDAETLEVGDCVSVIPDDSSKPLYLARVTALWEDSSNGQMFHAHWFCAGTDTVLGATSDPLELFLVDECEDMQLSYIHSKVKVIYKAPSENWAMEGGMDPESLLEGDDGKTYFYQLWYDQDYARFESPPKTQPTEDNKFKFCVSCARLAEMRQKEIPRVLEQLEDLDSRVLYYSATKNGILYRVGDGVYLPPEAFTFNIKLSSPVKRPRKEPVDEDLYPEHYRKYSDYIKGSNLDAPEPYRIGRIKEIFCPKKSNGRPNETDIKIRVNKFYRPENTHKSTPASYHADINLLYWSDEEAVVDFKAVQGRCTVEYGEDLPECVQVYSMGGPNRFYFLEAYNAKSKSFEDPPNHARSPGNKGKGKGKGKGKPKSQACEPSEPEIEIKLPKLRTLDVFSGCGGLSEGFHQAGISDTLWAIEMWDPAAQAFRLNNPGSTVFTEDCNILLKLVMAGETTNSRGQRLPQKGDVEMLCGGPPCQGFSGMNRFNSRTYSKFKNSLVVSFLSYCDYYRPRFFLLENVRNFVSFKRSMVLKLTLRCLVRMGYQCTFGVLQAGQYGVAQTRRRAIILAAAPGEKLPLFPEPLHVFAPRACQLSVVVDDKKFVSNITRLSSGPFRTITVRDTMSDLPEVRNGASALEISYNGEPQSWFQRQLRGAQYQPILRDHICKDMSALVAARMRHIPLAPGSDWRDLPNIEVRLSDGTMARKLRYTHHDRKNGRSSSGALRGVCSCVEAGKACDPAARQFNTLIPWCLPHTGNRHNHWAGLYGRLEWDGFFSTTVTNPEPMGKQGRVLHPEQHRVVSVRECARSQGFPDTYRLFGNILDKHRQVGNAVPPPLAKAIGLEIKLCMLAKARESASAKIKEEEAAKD
# [2] = binned activity in either the breaklight or the SPA assay
# [3] = binned activity in either the breaklight or the SPA assay, read-out: DNMT1 BioChemical (pIC50 category) (converted)
# [4] = breaklight assay and/or SPA assay, repeated experimental runs
# [5] = breaklight assay and/or SPA assay, repeated experimental runs, read-out: average pIC50 against DNMT1 (converted)
Structure (SMILES),EC50 [1],DNMT1 BioChemical (pIC50 category) (DNMT1; [2]),IC50 (DNMT1; [3]),average pIC50 against DNMT1 (DNMT1; [4]),IC50 (DNMT1; [5])
"CCc1c(C#N)c(SCc2ccc(N(C)S(C)(=O)=O)cc2)nc(N2CCOC(CN3CCCC3)C2)c1C#N (centres unmarked) [Example 574, N-(4-(((3,5-dicyano-4-ethyl-6-(2-(pyrrolidin-1-ylmethyl)morpholino)pyridin-2-yl)thio)methyl)phenyl)-N-methylmethanesulfonamide]",< 0.316 µM,D (Category D: ≥6.5),–,–,–
"CCc1c(C#N)c(SC(C(N)=O)c2ccsc2)nc(N2CCNCC2)c1C#N (centres unmarked) [Example 263, 2-(3,5-Dicyano-4-ethyl-6-(piperazin-1-yl)pyridin-2-ylthio)-2-(thiophen-3-yl)acetamide]",0.316 to 1 µM,–,0.316 to 1 µM,–,–
"CCc1c(C#N)c(SCc2ccc(N(C)S(C)(=O)=O)cc2)nc(N2CCOC(CN(C)C)C2)c1C#N (centres unmarked) [Example 571, N-(4-(((3,5-dicyano-6-(2-((dimethylamino)methyl)morpholino)-4-ethylpyridin-2-yl)thio)methyl)phenyl)-N-methylmethanesulfonamide]",< 0.316 µM,D (Category D: ≥6.5),–,–,–
"CCc1c(C#N)c(SC(C(N)=O)c2ccccc2)nc(N2CCC(O)(CO)CC2)c1C#N (centres unmarked) [Example 240, 2-((3,5-Dicyano-4-ethyl-6-(4-hydroxy-4-(hydroxymethyl)piperidin-1-yl)pyridin-2-yl)thio)-2-phenylacetamide]",1 to 31.6 µM,–,0.316 to 1 µM,–,–
"N#Cc1c(SC(C(N)=O)c2ccccc2)nc(N2CC[C@H](N)C2)c(C#N)c1C1CC1 (stereo partly drawn) [Example 115, 2-({6-[(3S)-3-Aminopyrrolidin-1-yl]-3,5-dicyano-4-cyclopropylpyridin-2-yl}sulfanyl)-2-phenylacetamide]",< 0.316 µM,D (Category D: ≥6.5),–,> 6.5,0.2 µM
"CCc1c(C#N)c(S[C@@H](C(N)=O)c2ccccc2)nc(N2CCO[C@H](CN)C2)c1C#N [Example 561, (R)-2-((6-((R)-2-(aminomethyl)morpholino)-3,5-dicyano-4-ethylpyridin-2-yl)thio)-2-phenylacetamide, Hydrochloride]",< 0.316 µM,D (Category D: ≥6.5),–,–,–
"CCc1c(C#N)c(SC(C(N)=O)c2cccc(C(F)(F)F)c2)nc(N2CCCN(C)CC2)c1C#N (centres unmarked) [Example 223, 2-((3,5-Dicyano-4-ethyl-6-(4-methyl-1,4-diazepan-1-yl)pyridin-2-yl)thio)-2-(3-(trifluoromethyl)phenyl)acetamide]",1 to 31.6 µM,–,0.316 to 1 µM,–,–
"CCc1c(C#N)c(SCc2ccc(CNC(=O)CN)cc2)nc(N2CC[C@@H](N)[C@@H](F)C2)c1C#N (relative stereo) [Example 546, rel-2-amino-N-(4-(((6-(cis-4-amino-3-fluoropiperidin-1-yl)-3,5-dicyano-4-ethylpyridin-2-yl)thio)methyl)benzyl)acetamide]",< 0.316 µM,–,0.316 to 1 µM,–,0.316 to 1 µM and 0.398 µM
"CCc1c(C#N)c(SC(C(N)=O)c2ccccc2)nc(N(C)CC(=O)N(C)CC(C)(C)CO)c1C#N (centres unmarked) [Example 615, 2-((6-((2-amino-2-oxo-1-phenylethyl)thio)-3,5-dicyano-4-ethylpyridin-2-yl)(methyl)amino)-N-(3-hydroxy-2,2-dimethylpropyl)-N-methylacetamide]",< 0.316 µM,D (Category D: ≥6.5),–,–,–
"CCc1c(C#N)c(SC(C(N)=O)c2ccccc2)nc(N2CCC(NC(=O)CN)CC2)c1C#N (centres unmarked) [Example 137, 2-Amino-N-(1-(6-((2-amino-2-oxo-1-phenylethyl)thio)-3,5-dicyano-4-ethylpyridin-2-yl)piperidin-4-yl)acetamide, Trifluoroacetic Acid Salt]",0.316 to 1 µM,D (Category D: ≥6.5),–,> 6.5,–
"CCc1c(C#N)c(SC(C(N)=O)c2ccccc2)nc(N2CCC(N3[C@H](C)CC[C@@H]3C)CC2)c1C#N (stereo partly drawn) [Example 452, 2-((3,5-dicyano-6-(4-((2R,5S)-2,5-dimethylpyrrolidin-1-yl)piperidin-1-yl)-4-ethylpyridin-2-yl)thio)-2-phenylacetamide]",< 0.316 µM,D (Category D: ≥6.5),–,–,–
"CCc1c(C#N)c(S[C@@H](C(N)=O)c2ccccc2)nc(N(C)CCO)c1C#N (single isomer, unassigned) [Example 431]",< 0.316 µM,D (Category D: ≥6.5),–,–,–
"CCc1c(C#N)c(SC(C(N)=O)c2ccccc2)nc(N2CC[C@@H](N)[C@@H](F)C2)c1C#N (relative stereo) [Example 545, rel-2-((6-cis-4-amino-3-fluoropiperidin-1-yl)-3,5-dicyano-4-ethylpyridin-2-yl)thio)-2-phenylacetamide]",< 0.316 µM,–,< 0.316 µM,–,–
"CCc1c(C#N)c(SC(C(N)=O)c2ccccc2)nc(N2CCC[C@@H](NC)C2)c1C#N (stereo partly drawn) [Example 636, 2-((3,5-dicyano-4-ethyl-6-((R)-3-(methylamino)piperidin-1-yl)pyridin-2-yl)thio)-2-phenylacetamide]",< 0.316 µM,D (Category D: ≥6.5),–,–,–
"CCc1c(C#N)c(SC(C(N)=O)c2ccccc2)nc(N(C)CC(=O)NC(CO)CO)c1C#N (centres unmarked) [Example 658, 2-((6-((2-amino-2-oxo-1-phenylethyl)thio)-3,5-dicyano-4-ethylpyridin-2-yl)(methyl)amino)-N-(1,3-dihydroxypropan-2-yl)acetamide]",1 to 31.6 µM,D (Category D: ≥6.5),–,–,–
"CCc1c(C#N)c(SC(C(N)=O)c2ccccc2)nc(N2CCC[C@H](N)C2)c1C#N (stereo partly drawn) [Example 612, 2-((6-((S)-3-aminopiperidin-1-yl)-3,5-dicyano-4-ethylpyridin-2-yl)thio)-2-phenylacetamide]",< 0.316 µM,D (Category D: ≥6.5),–,–,–
CCc1c(C#N)c(SCc2ccc(N(C)S(C)(=O)=O)cc2)nc(N(C)CCN(C)CCOC)c1C#N [Example 461],< 0.316 µM,D (Category D: ≥6.5),–,–,–
"CCc1c(C#N)c(SC(C(N)=O)c2ccccc2)nc(N2CCC(NC(=O)C3(N)COC3)CC2)c1C#N (centres unmarked) [Example 186, 3-Amino-N-(1-(6-((2-amino-2-oxo-1-phenylethyl)thio)-3,5-dicyano-4-ethylpyridin-2-yl)piperidin-4-yl)oxetane-3-carboxamide]",1 to 31.6 µM,D (Category D: ≥6.5),–,–,–
"CCc1c(C#N)c(SC(C(N)=O)c2ccccc2)nc(N2CCC(N(C)CC)CC2)c1C#N (centres unmarked) [Example 549, 2-((3,5-dicyano-4-ethyl-6-(4-(ethyl(methyl)amino)piperidin-1-yl)pyridin-2-yl)thio)-2-phenylacetamide]",< 0.316 µM,D (Category D: ≥6.5),–,–,–
"CCc1c(C#N)c(SCc2ccc(N(C)S(C)(=O)=O)cc2)nc(N2CCCC(CN(C)C)C2)c1C#N (centres unmarked) [Example 597, N-(4-(((3,5-dicyano-6-(3-((dimethylamino)methyl)piperidin-1-yl)-4-ethylpyridin-2-yl)thio)methyl)phenyl)-N-methylmethanesulfonamide]",< 0.316 µM,D (Category D: ≥6.5),–,–,–
"CCc1c(C#N)c(SC(C(N)=O)c2ccccc2)nc(N2CCC(N(C)C3CCC3)CC2)c1C#N (centres unmarked) [Example 454, 2-((3,5-dicyano-6-(4-(cyclobutyl(methyl)amino)piperidin-1-yl)-4-ethylpyridin-2-yl)thio)-2-phenylacetamide]",< 0.316 µM,D (Category D: ≥6.5),–,–,–
"CCc1c(C#N)c(SC(C(N)=O)c2ccccc2)nc(N2CCC(NC(=O)OC(C)(C)C)CC2)c1C#N (centres unmarked) [Example 328, tert-Butyl (1-(6-((2-amino-2-oxo-1-phenylethyl)thio)-3,5-dicyano-4-ethylpyridin-2-yl)piperidin-4-yl)carbamate]",0.316 to 1 µM,–,1 to 31.6 µM,–,–
"CCc1c(C#N)c(SC(C(N)=O)c2ccccc2)nc(N2CCC[C@@H](N)C2)c1C#N (stereo partly drawn) [Example 691, 2-((6-((R)-3-aminopiperidin-1-yl)-3,5-dicyano-4-ethylpyridin-2-yl)thio)-2-phenylacetamide]",1 to 31.6 µM,D (Category D: ≥6.5),–,–,–
"CCc1c(C#N)c(SCc2ccc(N(C)S(C)(=O)=O)cc2)nc(N(C)CCN)c1C#N [Example 484, N-(4-(((6-((2-aminoethyl)(methyl)amino)-3,5-dicyano-4-ethylpyridin-2-yl)thio)methyl)phenyl)-N-methylmethanesulfonamide]",< 0.316 µM,D (Category D: ≥6.5),–,–,–
"CCc1c(C#N)c(SC(C(N)=O)c2ccccc2)nc(N2CCC(F)(F)CC2)c1C#N (centres unmarked) [Example 133, 2-((3,5-Dicyano-6-(4,4-difluoropiperidin-1-yl)-4-ethylpyridin-2-yl)thio)-2-phenylacetamide]",1 to 31.6 µM,–,1 to 31.6 µM,–,≥ 1 µM
CCc1c(C#N)c(SC(C(N)=O)c2ccc(F)cn2)nc(N(C)C)c1C#N (centres unmarked) [Example 199],> 31.6 µM,D (Category D: ≥6.5),–,–,–
"CCc1c(C#N)c(SC(C(N)=O)c2ccccc2)nc(N2CC3CC2CN3C)c1C#N (centres unmarked) [Example 303, 2-((3,5-Dicyano-4-ethyl-6-(5-methyl-2,5-diazabicyclo[2.2.1]heptan-2-yl)pyridin-2-yl)thio)-2-phenylacetamide]",0.316 to 1 µM,–,0.316 to 1 µM,–,0.316 to 1 µM and 0.631 µM
"CCc1c(C#N)c(SC(C(N)=O)c2ccc(F)cc2)nc(N2CCC(N(C)C)CC2)c1C#N (centres unmarked) [Example 207, 2-((3,5-Dicyano-6-(4-(dimethylamino)piperidin-1-yl)-4-ethylpyridin-2-yl)thio)-2-(4-fluorophenyl)acetamide]",< 0.316 µM,–,0.316 to 1 µM,–,–
